Laboratory results from patent publication US20260137714A1, “METHODS AND COMPOSITIONS FOR TREATMENT OF OPHTHALMIC DISEASE” (Design Therapeutics, Inc., priority 2022, published 2026).

Key:
[1] = system: Immortalized Fuchs endothelial corneal dystrophy cells (F35T); assay: In vitro foci assay (nuclear foci by FISH with (CAG)10-Cy3 oligonucleotide); type: cell-based; details: 48 h treatment, 3000 to 1 nM
Method: Immortalized Fuchs endothelial corneal dystrophy cells (F35T) were seeded in black-sided clear-bottomed 96 well plates at 5000 cells per well 16 hours prior to compound treatment. Compounds were dissolved in DMSO to 1 mM and diluted to a final concentration of 3000 to 1 nM in F35T cell culture media. Diluted compounds were added to the F35T cells and incubated for 48 h.
Following treatment, cells were fixed in 4% paraformaldehyde for 20 min, washed twice with PBS, and permeabilized with 70% ethanol at −20 deg C. for 16 h. Following permeabilization, cells were washed twice with PBS then hydrated with 30% formamide plus 2×SSC buffer for 10 min. Nuclear foci were labeled using fluorescent in situ hybridization with a (CAG)10-Cy3 oligonucleotide. Images were collected and automated image analysis was performed on a BioTEK Cytation 5.

[2] = Ex vivo bovine eye penetration of compounds formulated in water; type: in vitro ADME; details: for Cornea, R1 / Descemet Membrane/endothelial cells, R1: bovine eye, 30 min at room temperature, LC-MS, replicate R1
Method: Freshly enucleated bovine eyes (Nebraska Scientific) were treated with compound as described previously (Luschmann et al., “Developing an in situ nanosuspension: a novel approach towards the efficient administration of poorly soluble drugs at the anterior eye”, European Journal of Pharmaceutical Sciences (2013)). Individual eyes were rinsed with 10 mL of sterile 0.9% saline then placed in the bottom of a 600 mL glass beaker (Pyrex). A borosilicate glass powder funnel with a 26 mm diameter stem (Eisco Labs) was gently rested on top of the eye with the cornea centered in the cylindrical opening, creating a sealed dosing chamber in which solutions were applied. Eyes were equilibrated in sterile 0.9% saline at room temperature for 20 min then decanted. 500 μL of 0.1 to 0.3% GeneTAC compound was applied to the cornea followed by 167 μL of sterile water to mimic the instillation a 30 μL eye drop into 10 μL of tear fluid. Compound was incubated for 30 min at room temperature after which the funnel was removed. Next, eyes were washed twice with 10 ml of 5.2% aqueous mannitol solution to remove residual compound. Aqueous humor was recovered using a 28-gauge needle and snap frozen in liquid nitrogen. The cornea was then surgically excised, and the Descemet membrane and corneal endothelium (DM/CE) were removed with fine forceps under a dissecting microscope and snap frozen in liquid nitrogen. Compound abundance was quantified in aqueous humor, anterior cornea, and DM/CE using liquid chromatography-mass spectrometry.

[3] = Compound solubility in water using in situ salt formation with aqueous HCl; type: physicochemical; details: for Result: appearance at the final concentration; for solubility: aqueous buffer, thermodynamic from solid, water with aqueous HCl, in situ salt formation, started at 10 mg/ml, minimum tested 1 mg/ml, read-out: Final Concentration; for pH: pH of the solution at the end of the experiment, before any aq. NaOH; for pH after aq. NaOH: pH of the solution after adjustment with aq. NaOH
Method: To determine solubility of candidate compounds, solubility of the compounds was determined at a concentration of 10 mg/ml using in situ salt formation with aqueous HCl. First, 0.5 ml of sterile water was added to 10 mg of dry compound, vortexed, and briefly centrifuged. Next, 0.5 equivalents of 0.025 M HCl were added to the mixture followed by a volume of water that totaled 1 ml. The mixture was stirred continuously for 0.5 to 24 h. […] If the solution was not clear, additional water and/or HCl was added, along with continuous stirring and vortexing until it was determined that the compound had completely dissolved or was refractory to dissolution. The minimum concentration tested was 1 mg/ml. pH values were assessed at the end of the experiment.

| Compound | IC50 [1] [nM] | Concentrations reached in corneal epithelium and stroma and in Descemet membrane and endothelium, relative to IC50 ([2]; FIG. 1, ex vivo bovine eye distribution) | Cornea, R1 [2] [nM] | Descemet Membrane/endothelial cells, R1 [2] | Result [3] | solubility [3] [µg/mL] | pH [3] | pH after aq. NaOH [3] |
| --- | --- | --- | --- | --- | --- | --- | --- | --- |
| COCCOCCOCCOCCN(CCCNC(=O)c1nc(NC(=O)c2cc(NC(=O)CCNC(=O)c3nc(NC(=O)CCCNC(=O)c4cc(NC(=O)c5nc(NC(=O)CCNC(=O)c6cc(NC(=O)c7nccn7C)cn6C)cn5C)cn4C)cn3C)cn2C)cn1C)CCOCCOCCOCCOC [Compound 201] | 167 | above the IC50 for preventing foci formation as well as above the IC50 for preventing abnormal splicing events | 798 | 46 nM | Clear solution | ≥ 10000 | 6.04 | – |
| CN1CC2(CCN(C(=O)CCNC(=O)c3nc(NC(=O)c4cc(NC(=O)CCNC(=O)c5nc(NC(=O)CCCNC(=O)c6cc(NC(=O)c7nc(NC(=O)CCNC(=O)c8cc(NC(=O)c9nccn9C)cn8C)cn7C)cn6C)cn5C)cn4C)cn3C)CC2)C1 [Compound 202] | 213 | – | – | – | Clear solution | ≥ 4030 | 3.10 | 6.24 |
| CN1CC(C2CCN(C(=O)CCNC(=O)c3nc(NC(=O)c4cc(NC(=O)CCNC(=O)c5nc(NC(=O)CCCNC(=O)c6cc(NC(=O)c7nc(NC(=O)CCNC(=O)c8cc(NC(=O)c9nccn9C)cn8C)cn7C)cn6C)cn5C)cn4C)cn3C)CC2)C1 [Compound 203] | 384 | – | – | – | Clear solution | ≥ 3180 | 8.04 | – |
| Cn1cc(NC(=O)c2nc(NC(=O)CCNC(=O)c3cc(NC(=O)c4nccn4C)cn3C)cn2C)cc1C(=O)NCCCC(=O)Nc1cn(C)c(C(=O)NCCC(=O)Nc2cc(C(=O)Nc3cn(C)c(C(=O)NCCC(=O)N4CCC(C5CNC5)CC4)n3)n(C)c2)n1 [Compound 204] | 518 | – | – | – | Clear solution | ≥ 3780 | 2.32 | 6.73 |
| CN(C)CCOCCNC(=O)c1nc(NC(=O)c2cc(NC(=O)CCNC(=O)c3nc(NC(=O)CCCNC(=O)c4cc(NC(=O)c5nc(NC(=O)CCNC(=O)c6cc(NC(=O)c7nccn7C)cn6C)cn5C)cn4C)cn3C)cn2C)cn1C [Compound 205] | 65 | – | – | – | Clear solution | ≥ 1000 | 7.62 | – |
| Cn1cc(NC(=O)c2nc(NC(=O)CCNC(=O)c3cc(NC(=O)c4nccn4C)cn3C)cn2C)cc1C(=O)NCCCC(=O)Nc1cn(C)c(C(=O)NCCC(=O)Nc2cc(C(=O)Nc3cn(C)c(C(=O)NCCCN4CCOCC4)n3)n(C)c2)n1 [Compound 206] | 172 | – | – | – | Clear solution | ≥ 1000 | 4.96 | – |
| Cn1cc(NC(=O)c2nc(NC(=O)CCNC(=O)c3cc(NC(=O)c4nccn4C)cn3C)cn2C)cc1C(=O)NCCCC(=O)Nc1cn(C)c(C(=O)NCCC(=O)Nc2cc(C(=O)Nc3cn(C)c(C(=O)NCCC(=O)N4CCC(C#CC#CC5CCNCC5)CC4)n3)n(C)c2)n1 [Compound 207] | 33 | – | – | – | Clear solution | ≥ 10000 | – | – |
| Cn1cc(NC(=O)c2nc(NC(=O)CCNC(=O)c3cc(NC(=O)c4nccn4C)cn3C)cn2C)cc1C(=O)NCCCC(=O)Nc1cn(C)c(C(=O)NCCC(=O)Nc2cc(C(=O)Nc3cn(C)c(C(=O)NCCC(=O)N4CCC5(CC4)CNC5)n3)n(C)c2)n1 [Compound 208] | 186 | – | – | – | Clear solution | ≥ 3530 | 2.75 | 6.07 |
| CN1CCN(C(=O)CCNC(=O)c2nc(NC(=O)c3cc(NC(=O)CCNC(=O)c4nc(NC(=O)[C@H](N)CCNC(=O)c5cc(NC(=O)c6nc(NC(=O)CCNC(=O)c7cc(NC(=O)c8nccn8C)cn7C)cn6C)cn5C)cn4C)cn3C)cn2C)CC1 [Compound 209] | 1650 | – | – | – | Clear solution | ≥ 10000 | 2.21 | – |
| Cn1cc(NC(=O)c2nccn2C)cc1C(=O)NCCC(=O)Nc1cn(C)c(C(=O)Nc2cc(C(=O)NCC[C@@H](N)C(=O)Nc3cn(C)c(C(=O)NCCC(=O)Nc4cc(C(=O)Nc5cn(C)c(C(=O)NCCC(=O)N6CCC(C#CC#CC7CCNCC7)CC6)n5)n(C)c4)n3)n(C)c2)n1 [Compound 210] | 715 | – | – | – | Clear solution | ≥ 10000 | 2.14 | – |
| CN(C)CCCCNC(=O)c1nc(NC(=O)c2cc(NC(=O)CCNC(=O)c3nc(NC(=O)[C@H](N)CCNC(=O)c4cc(NC(=O)c5nc(NC(=O)CCNC(=O)c6cc(NC(=O)c7nccn7C)cn6C)cn5C)cn4C)cn3C)cn2C)cn1C [Compound 211] | 1640 | – | – | – | Clear solution | ≥ 10000 | 2.14 | – |
| COCCOCCOCCOCCOCCOCCOc1ccc(C#CCNCCCNC(=O)c2nc(NC(=O)c3cc(NC(=O)CCNC(=O)c4nc(NC(=O)CCCNC(=O)c5cc(NC(=O)c6nc(NC(=O)CCNC(=O)c7cc(NC(=O)c8nccn8C)cn7C)cn6C)cn5C)cn4C)cn3C)cn2C)cc1 [Compound 212] | 378 | – | – | – | Clear solution | ≥ 10000 | 1.97 | – |
| Cn1cc(NC(=O)c2nc(NC(=O)CCNC(=O)c3cc(NC(=O)c4nccn4C)cn3C)cn2C)cc1C(=O)NCCCC(=O)Nc1cn(C)c(C(=O)NCCC(=O)Nc2cc(C(=O)Nc3cn(C)c(C(=O)NCCC(=O)N4CCC(N5CCNCC5)CC4)n3)n(C)c2)n1 [Compound 213] | 892 | – | 50 | BQL | Clear solution | ≥ 3210 | 6.64 | – |
| CCCCn1cc(NC(=O)c2nc(NC(=O)CCNC(=O)c3cc(NC(=O)c4nccn4C)cn3C)cn2C)cc1C(=O)NCC[C@@H](N)C(=O)Nc1cn(C)c(C(=O)NCCC(=O)Nc2cc(C(=O)Nc3cn(C)c(C(=O)NCCC(=O)N4CCN(C)CC4)n3)n(C)c2)n1 [Compound 214] | 237 | – | – | – | Clear solution | ≥ 10000 | 2.16 | – |
